# Data as given in US20040152783A1, “Controlled absorption of admixed thyroid hormone formulations” (priority 2002, published 2004).
# Like-named read-outs stand apart in the source and are kept apart here.
# Experiment: Kinetics of T3 absorption after oral dosing in rats; total serum T3 by ELISA
# Format: in vivo, Sprague-Dawley rats
# Details: for Peak of Delta Curve: oral solution; for Peak of Delta Curve / Deltamax / delta AUC / Tmax: serum TT3; for Percent T3 sodium (AUC 0-24) / Percent T3 sodium (Deltamax) / Percent T3 sodium (Peak of Delta Curve) / Percent T3 sodium (Tmax) / AUC* (0-24) / Deltamax / delta AUC / Tmax: oral; for AUC* (0-24): from mean delta TT3 curve above 0 hour value
# Experimental: Defined μg/kg doses were delivered as oral solutions in 0.5% sodium bicarbonate buffer. Rats were dosed immediately following 0 hour serum collection. Serum was collected from rats at two, four, six, nine, 12 and 24 hours after dosing. Total serum T3 concentrations were determined by ELISA using a commercially available kit (Total Triiodothyronine (total T3) ELISA KIT, product #1700, ALPHA DIAGNOSTIC™, San Antonio, Tex.).
# [1] = Example 1, T3 sodium 12 μg/kg vs T4 sodium 162 plus T3 sodium 12 μg/kg (13.5:1)
# [2] = Example 2, T3 sodium 6 μg/kg vs T4 sodium 54 plus T3 sodium 6 μg/kg (9:1)
# [3] = Example 3, T3 sodium 4 μg/kg vs T4 sodium 16 plus T3 sodium 4 μg/kg (4:1)
# [4] = Example 4, T3 sodium 4 μg/kg vs T4 sodium 4 plus T3 sodium 4 μg/kg (1:1)
# [5] = Example 5, T3 sodium 15 μg/kg vs T4 sodium 6 plus T3 sodium 15 μg/kg (0.4:1)
# [6] = Example 6, T3 sodium 15 μg/kg vs T4 sodium 1.5 plus T3 sodium 15 μg/kg (0.1:1)
compound,measurement,setting,value
"N[C@@H](Cc1cc(I)c(Oc2ccc(O)c(I)c2)c(I)c1)C(=O)O [T3 sodium, liothyronine sodium]",Peak of Delta Curve,"Example 1, T3 sodium 12 μg/kg alone vs T4 sodium 162 μg/kg plus T3 sodium 12 μg/kg (T4:T3 13.5:1)",142 ng/dL
same,Percent T3 sodium (AUC 0-24),[1],100%
same,Percent T3 sodium (Deltamax),[1],100%
same,Percent T3 sodium (Peak of Delta Curve),[1],100%
same,Percent T3 sodium (Tmax),[1],100%
same,AUC* (0-24),[1],"1,469 ng/dLh"
same,Deltamax,[1],156 ng/dL
same,delta AUC,[1],"1,471 ng/dL·hr"
same,Peak of Delta Curve,"Example 2, T3 sodium 6 μg/kg alone vs T4 sodium 54 μg/kg plus T3 sodium 6 μg/kg (T4:T3 9:1)",232 ng/dL
same,Percent T3 sodium (AUC 0-24),[2],100%
same,Percent T3 sodium (Deltamax),[2],100%
same,Percent T3 sodium (Peak of Delta Curve),[2],100%
same,Percent T3 sodium (Tmax),[2],100%
same,AUC* (0-24),[2],"2,212 ng/dLh"
same,Deltamax,[2],232 ng/dL
same,delta AUC,[2],"2,384 ng/dL·hr"
same,Peak of Delta Curve,"Example 3, T3 sodium 4 μg/kg alone vs T4 sodium 16 μg/kg plus T3 sodium 4 μg/kg (T4:T3 4:1)",65 ng/dL
same,Percent T3 sodium (AUC 0-24),[3],100%
same,Percent T3 sodium (Deltamax),[3],100%
same,Percent T3 sodium (Peak of Delta Curve),[3],100%
same,Percent T3 sodium (Tmax),[3],100%
same,AUC* (0-24),[3],"1,193 ng/dLh"
same,Deltamax,[3],69 ng/dL
same,delta AUC,[3],"1,193 ng/dL·hr"
same,Peak of Delta Curve,"Example 4, T3 sodium 4 μg/kg alone vs T4 sodium 4 μg/kg plus T3 sodium 4 μg/kg (T4:T3 1:1)",65 ng/dL
same,Percent T3 sodium (AUC 0-24),[4],100%
same,Percent T3 sodium (Deltamax),[4],100%
same,Percent T3 sodium (Peak of Delta Curve),[4],100%
same,Percent T3 sodium (Tmax),[4],100%
same,AUC* (0-24),[4],"1,193 ng/dLh"
same,Deltamax,[4],69 ng/dL
same,Tmax,[4],2.4 h
same,delta AUC,[4],"1,193 ng/dL·hr"
same,Peak of Delta Curve,"Example 5, T3 sodium 15 μg/kg alone vs T4 sodium 6 μg/kg plus T3 sodium 15 μg/kg (T4:T3 0.4:1)",167 ng/dL
same,Percent T3 sodium (AUC 0-24),[5],100%
same,Percent T3 sodium (Deltamax),[5],100%
same,Percent T3 sodium (Peak of Delta Curve),[5],100%
same,Percent T3 sodium (Tmax),[5],100%
same,AUC* (0-24),[5],"1,732 ng/dLh"
same,Deltamax,[5],170 ng/dL
same,delta AUC,[5],"1,732 ng/dL·hr"
same,Peak of Delta Curve,"Example 6, T3 sodium 15 μg/kg alone vs T4 sodium 1.5 μg/kg plus T3 sodium 15 μg/kg (T4:T3 0.1:1)",138 ng/dL
same,Percent T3 sodium (AUC 0-24),[6],100%
same,Percent T3 sodium (Deltamax),[6],100%
same,Percent T3 sodium (Peak of Delta Curve),[6],100%
same,Percent T3 sodium (Tmax),[6],100%
same,AUC* (0-24),[6],"1,762 ng/dLh"
same,Deltamax,[6],146 ng/dL
same,delta AUC,[6],"1,762 ng/dL·hr"
same,Tmax,"Sprague-Dawley, rat, 15 ug/kg, Example 6, T3 sodium 15 μg/kg vs T4 sodium 1.5 plus T3 sodium 15 μg/kg (0.1:1), read-out: Tmax",5.6 h
same,Tmax,"Sprague-Dawley, rat, Example 1, T3 sodium 12 μg/kg vs T4 sodium 162 plus T3 sodium 12 μg/kg (13.5:1), read-out: Tmax",5.2 h
same,Tmax,"Sprague-Dawley, rat, Example 2, T3 sodium 6 μg/kg vs T4 sodium 54 plus T3 sodium 6 μg/kg (9:1), read-out: Tmax",2 h
same,Tmax,"Sprague-Dawley, rat, Example 3, T3 sodium 4 μg/kg vs T4 sodium 16 plus T3 sodium 4 μg/kg (4:1), read-out: Tmax",2.4 h
same,Tmax,"Sprague-Dawley, rat, Example 5, T3 sodium 15 μg/kg vs T4 sodium 6 plus T3 sodium 15 μg/kg (0.4:1), read-out: Tmax",4.6 h
